Laboratory results reported in US8969320B2, “Hyaluronic acid derivatives containing groups able to release NO” (Fidia Farmaceutici S.P.A., priority 2007, dated 2015).

Assay: Release Test: nitric oxide (NO) release profile by spectrophotometry (Griess test)
Assay type: physicochemical
Settings: 4 mg product in 2.5 ml Griess reagent
Description: The nitric oxide (NO) release profile of the compounds of the invention was evaluated by spectrophotometry using the […]. The trend of NO release by the HA-Cys conjugate in S-nitroso form, prepared as described in example 13, is shown here by way of example. Briefly: 4 mg of the product is dissolved in 2.5 ml of Griess reagent in a UV-visible spectrophotometric cuvette. The solution is rapidly homogenised, placed in a double-beam spectrophotometer (Perkin Elmer Lambda 2), and the absorbance trend is measured at 540 nm over time against a blank consisting of Griess solution. The absorbance, i.e. the nitric oxide concentration, increases in the solution with an asymptotic trend, the plateau of which has not yet been reached 25 hrs after release. Assuming first-order kinetics, a decay constant amounting to 70 min^−1 is obtained.

Substance: HA-Cys-S-nitric Oxide p50 Derivative (750 kDa) [Example 13]
- decay constant of NO release, assuming first-order kinetics (absorbance at 540 nm over time against Griess solution blank): 70 min⁻¹
- time after release at which the plateau of NO concentration (absorbance) has not yet been reached (absorbance at 540 nm, asymptotic trend): > 25 h
